Data: patent US11667645B2, “Granzyme B directed imaging and therapy” (CytoSite Biopharma Inc., priority 2018, dated 2023)

Molecular target: Granzyme B (human lymphocytes) (Homo sapiens (Human), UniProt P10144)
Assay: human Granzyme B biochemical assay
Conditions: Granzyme B (human lymphocytes) 5 nM, substrate Ac-IETD-AFC 200 μM, Cpd incubation with enzyme 30 mins, 22° C., read time 60 mins; read-out: IC50
From the text: The compounds of Formula I-VIII described above can be tested using the human Granzyme B biochemical assay provided below.
Materials: • 1. Granzyme B (human lymphocytes) Enzyme: Enzo Lifesciences, Cat #ALX-200-602-0010 • 2. Substrate (Ac-IETD-AFC): Enzo Lifesciences, Cat #ALX-260-110-M010 • 3. Standard inhibitor (Compound 20-Isomer3): Synthesized internally in TCG • 4. Dimethyl sulfoxide (DMSO): Sigma-Aldrich, Cat #41639 • 5. HEPES: Gibco, Cat #15630-080 • 6. Calcium chloride: Sigma-Aldrich, Cat #C-5080 • 7. Distilled water: Gibco, Cat #15230-162 • 8. Bovine serum albumin (BSA): Sigma-Aldrich, Cat #A3059 • 9. Black, clear bottom PDL plate (384 wells): Greiner bio-one, Cat #781946 • 10. Polypropylene plate (384 wells): Corning, Cat #3657 Assay Buffer Composition:
Compound Preparation: • 1. DMSO is added to the respective compound vial to make 10 mM Compound stock solution, which is stored at −20° C. • 2. 10 mM Compound stock solution is thawed and 1 mM DMSO stock solution is prepared by adding 45 μl of DMSO to 5 μl of 10 mM compound stock solution. • 3. 1 mM DMSO stock solution is serially diluted (3.16 fold) by adding 10 μl of 1 mM DMSO stock to 21.6 μl of DMSO and mixed well. 10 μl of the resulting solution is then added to 21.6 μl of DMSO and mixed well. This process is continued to create 11 dilution points for the assay standard inhibitor and 8 dilution points for test compounds in 384 well polypropylene plate. • 4. 2 μl of each dilution are dispensed in assay ready plate. • 5. Each well is then diluted 25 fold by adding 48 μl of assay buffer to 2 μl of compound in assay ready plate to make Compound working stock. Enzyme Preparation: • 1. Supplied Granzyme B (human lymphocytes) enzyme is reconstituted to 1 mg/ml (about 31.25 μM) and 1 μl aliquots are kept in −80° C. • 2. 1 μl aliquot is diluted to 625 nM by adding 49 μl of assay buffer containing 0.1% BSA and gently mixed. • 3. 10 nM enzyme working stock is prepared by adding assay buffer containing 0.1% BSA. Substrate Preparation: • 1. Supplied substrate (Ac-IETD-AFC) is reconstituted by adding DMSO to make 10 mM stock, aliquoted and stored in −80° C. • 2. 4 mM substrate mid stock is prepared by adding DMSO. • 3. Substrate working stock i.e. 800 μM is prepared by adding assay buffer. Assay Protocol: • 1. 10 μl of serially diluted Compound working stock (start dose 40 μM) is added from assay ready plate to assay plate according to the plate map. • 2. Positive control (40 μM of standard inhibitor) and negative control (4% DMSO buffer) are added to the respective wells. • 3. 20 μl of Enzyme working stock is added to assay plate and gently mixed. • 4. The plate is incubated at 22° C. for 30 mins and spun at 130 g for 1 minute. • 5. After incubation, 10 μl of Substrate working stock is added to respective wells and mixed (Assay plate is maintained in dark after substrate addition). • 6. The plate is incubated at 22° C. for 60 mins and spun at 130 g for 1 minute. • 7. Fluorescence read (RFU) (Ex: 400 nm/Em: 505 nm) is taken after 60 mins in EnVision Multimode plate reader. Final Assay Concentration:
Data Analysis: • 1. The RFU read is analyzed to calculate percent inhibition by normalizing with positive and negative controls taken as 100% and 0% effect respectively in Microsoft excel. • 2. Graph is generated by putting the analyzed data in GraphPad prism 5.0 software to get IC50 value for each compound.

Granzyme B (human lymphocytes), sequence (P10144 21-247): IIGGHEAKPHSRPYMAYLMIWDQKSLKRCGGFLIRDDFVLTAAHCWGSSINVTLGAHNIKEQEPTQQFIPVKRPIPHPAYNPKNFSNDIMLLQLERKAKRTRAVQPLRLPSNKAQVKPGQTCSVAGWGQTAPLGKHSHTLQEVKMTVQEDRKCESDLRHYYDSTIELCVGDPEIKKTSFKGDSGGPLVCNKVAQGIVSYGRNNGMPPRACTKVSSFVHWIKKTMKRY

IC50 [nM] | SMILES
1 to 300 | CC[C@H](C)[C@H](NC(=O)Cc1nc2ccccc2[nH]1)C(=O)N[C@H]1CCc2cccc3c2N(C1=O)[C@H](C(=O)NCc1c[nH]nn1)C3 [Compound C162, (2S,5S)-5-[(2S,3S)-2-(2-1H-Benzoimidazol-2-yl-acetylamino)-3-methyl-pentanoylamino]-4-oxo-1,2,4,5,6,7-hexahydro-azepino[3,2,1-hi]indole-2-carboxylic acid (1H-[1,2,3]triazol-4-ylmethyl)-amide]
301 to 1000 | CC(C)[C@H](NC(=O)c1ccccc1F)C(=O)N[C@H]1CCc2cccc3c2N(C1=O)[C@H](C(=O)NCc1c[nH]nn1)C3 [Compound C049, (2S,5S)-5-[(S)-2-(2-Fluoro-benzoylamino)-3-methyl-butyrylamino]-4-oxo-1,2,4,5,6,7-hexahydro-azepino[3,2,1-hi]indole-2-carboxylic acid (1H-[1,2,3]triazol-4-ylmethyl)-amide]
> 5000 | CCC(C)[C@H](NC(=O)COCCF)C(=O)N[C@H]1CCc2cccc3c2N(C1=O)[C@H](C(=O)NCc1ccoc1)C3 (stereo in doubt) [Compound C108, (2S,5S)-5-{(2S,3R)-2-[2-(2-Fluoro-ethoxy)-acetylamino]-3-methyl-pentanoylamino}-4-oxo-1,2,4,5,6,7-hexahydro-azepino[3,2,1-hi]indole-2-carboxylic acid (furan-3-ylmethyl)-amide]
301 to 1000 | CCC(CC)[C@H](NC(=O)Cc1csc2ccccc12)C(=O)N[C@H]1CCc2cccc3c2N(C1=O)[C@H](C(=O)NCc1c[nH]nn1)C3 [Compound C072, (2S,5S)-5-[(S)-2-(2-Benzo[b]thiophen-3-yl-acetylamino)-3-ethyl-pentanoylamino]-4-oxo-1,2,4,5,6,7-hexahydro-azepino[3,2,1-hi]indole-2-carboxylic acid (1H-[1,2,3]triazol-4-ylmethyl)-amide]
1000 to 5000 | CC(=O)N[C@@H](CC(C)C)C(=O)N[C@H]1CCc2cccc3c2N(C1=O)[C@H](C(=O)NCc1c[nH]nn1)C3 [Compound C027, (2S,5S)-5-((S)-2-Acetylamino-4-methyl-pentanoylamino)-4-oxo-1,2,4,5,6,7-hexahydro-azepino[3,2,1-hi]indole-2-carboxylic acid (1H-[1,2,3]triazol-4-ylmethyl)-amide]
1 to 300 | CC(C)[C@H](NC(=O)Cc1ccccc1)C(=O)N[C@H]1CCc2cccc3c2N(C1=O)[C@H](C(=O)NCc1c[nH]nn1)C3 [Compound C014, (2S,5S)-5-((S)-3-Methyl-2-phenylacetylamino-butyrylamino)-4-oxo-1,2,4,5,6,7-hexahydro-azepino[3,2,1-hi]indole-2-carboxylic acid (1H-[1,2,3]triazol-4-ylmethyl)-amide]
301 to 1000 | CC[C@H](C)[C@H](NC(=O)COCCF)C(=O)N[C@H]1CS(=O)(=O)c2cccc3c2N(C1=O)[C@H](C(=O)NCc1c[nH]nn1)C3 [Compound C172, (1S,8R)-8-{(2S,3S)-2-[2-(2-Fluoro-ethoxy)-acetylamino]-3-methyl-pentanoylamino}-6,6,9-trioxo-1,2,6,7,8,9-hexahydro-6lambda*6*- thia-9a-aza-benzo[cd]azulene-1-carboxylic acid (1H-[1,2,3]triazol-4-ylmethyl)-amide]
301 to 1000 | O=C(N[C@H](C(=O)N[C@H]1CCc2cccc3c2N(C1=O)[C@H](C(=O)NCc1c[nH]nn1)C3)C1CC1)c1ccccc1 [Compound C082, (2S,5S)-5-((S)-2-Benzoylamino-2-cyclopropyl-acetylamino)-4-oxo-1,2,4,5,6,7-hexahydro-azepino[3,2,1-hi]indole-2-carboxylic acid (1H-[1,2,3]triazol-4-ylmethyl)-amide]
1000 to 5000 | O=C(Cc1ccccc1)N[C@@H](Cc1ccccc1)C(=O)N[C@H]1CCc2cccc3c2N(C1=O)[C@H](C(=O)NCc1c[nH]nn1)C3 [Compound C015, (2S,5S)-4-Oxo-5-((S)-3-phenyl-2-phenylacetylamino-propionylamino)-1,2,4,5,6,7-hexahydro-azepino[3,2,1-hi]indole-2-carboxylic acid (1H-[1,2,3]triazol-4-ylmethyl)-amide]
1 to 300 | CCC(CC)[C@H](NC(C)=O)C(=O)N[C@H]1CCc2cccc3c2N(C1=O)[C@H](C(=O)NCc1c[nH]nn1)C3 [Compound C074, (2S,5S)-5-((S)-2-Acetylamino-3-ethyl-pentanoylamino)-4-oxo-1,2,4,5,6,7-hexahydro-azepino[3,2,1-hi]indole-2-carboxylic acid (1H-[1,2,3]triazol-4-ylmethyl)-amide]
1 to 300 | CC[C@H](C)[C@H](NC(=O)c1ccccn1)C(=O)N[C@H]1CCc2cccc3c2N(C1=O)[C@H](C(=O)NCc1c[nH]nn1)C3 [Compound C066, (2S,5S)-5-{(2S,3S)-3-Methyl-2-[(pyridine-2-carbonyl)-amino]-pentanoylamino}-4-oxo-1,2,4,5,6,7-hexahydro-azepino[3,2,1-hi]indole-2-carboxylicacid (1H-[1,2,3]triazol-4-ylmethyl)-amide]
> 5000 | CC[C@H](C)[C@H](NC(=O)COCCF)C(=O)N[C@H]1CCc2cccc3c2N(C1=O)[C@H](C(=O)NCc1ccc(Cl)cc1)C3 [Compound C132, (2S,5S)-5-{(2S,3S)-2-[2-(2-Fluoro-ethoxy)-acetylamino]-3-methyl-pentanoylamino}-4-oxo-1,2,4,5,6,7-hexahydro-azepino[3,2,1-hi]indole-2-carboxylic acid 4-chloro-benzylamide]
> 5000 | COC(=O)[C@H](C)NC(=O)[C@@H]1Cc2cccc3c2N1C(=O)[C@@H](NC(=O)[C@@H](NC(C)=O)C(C)C)CC3 [Compound C090, (S)-2-{[(2S,5S)-5-((S)-2-Acetylamino-3-methyl-butyrylamino)-4-oxo-1,2,4,5,6,7-hexahydro-azepino[3,2,1-hi]indole-2-carbonyl]-amino}-propionic acid methyl ester]
> 5000 | O=C(O)CC[C@H](NC(=O)Cc1ccccc1)C(=O)N[C@H]1CCc2cccc3c2N(C1=O)[C@H](C(=O)NCc1c[nH]nn1)C3 [Compound C019, (S)-4-{(2S,5S)-4-Oxo-2-[(1H-[1,2,3]triazol-4-ylmethyl)-carbamoyl]-1,2,4,5,6,7-hexahydro-azepino[3,2,1-hi]indol-5-ylcarbamoyl}-4-phenylacetylamino-butyric acid]
> 5000 | CC[C@H](C)[C@H](NC(=O)COCCF)C(=O)N[C@H]1CCc2cccc3c2N(C1=O)[C@H](C(=O)NCc1cscn1)C3 [Compound C115, (2S,5S)-5-{(2S,3S)-2-[2-(2-Fluoro-ethoxy)-acetylamino]-3-methyl-pentanoylamino}-4-oxo-1,2,4,5,6,7-hexahydro-azepino[3,2,1-hi]indole-2-carboxylic acid (thiazol-4-ylmethyl)-amide]
1 to 300 | CC(=O)N[C@H](C(=O)N[C@H]1CCc2cccc3c2N(C1=O)[C@H](C(=O)NCc1c[nH]nn1)C3)C1CCCC1 [Compound C077, (2S,5S)-5-((S)-2-Acetylamino-2-cyclopentyl-acetylamino)-4-oxo-1,2,4,5,6,7-hexahydro-azepino[3,2,1-hi]indole-2-carboxylic acid (1H-[1,2,3]triazol-4-ylmethyl)-amide]
